The assay deals with KRAS G12C (Homo sapiens (Human), UniProt P01116, C118A/G12C). The assay is described as follows: 2 h coupled exchange assay. The assay is classed as biochemical. To be noted: Avg 2 h Coupled exchange IC50, 2 h compound pre-incubation, SOS-mediated nucleotide exchange. On the procedure: The term “2 h coupled exchange assay” or “20 h coupled exchange assay” as used herein refers to the assay described in the Section entitled “BIOLOGICAL EVALUATION.”
Sequence of KRAS G12C (P01116 other isoform, or with tags, fused parts or gaps G12C/C118A): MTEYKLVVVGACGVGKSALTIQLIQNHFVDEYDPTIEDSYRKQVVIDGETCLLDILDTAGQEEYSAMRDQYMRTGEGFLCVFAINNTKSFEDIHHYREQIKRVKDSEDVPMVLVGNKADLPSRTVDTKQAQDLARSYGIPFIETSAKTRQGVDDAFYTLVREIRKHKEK
On to `C=CC(=O)N1CC2(CCN(c3nc4c(c(-c5cc(O)c(F)c6ccccc56)c3C#N)CC[C@H]3C[C@@H]43)C2)C1` (single isomer, unassigned) [Example 13-75], for which 17 µM corresponded to half-maximal inhibition (IC50). With `C=CC(=O)N1CC2(CCN(c3nc4c(c(-c5cc(O)c(F)c6ccccc56)c3C#N)COC(C)(C)C4)C2)C1` (single isomer, unassigned) [Example 13-77, (M)-4-(4-fluoro-3-hydroxy-1-naphthalenyl)-7,7-dimethyl-2-(2-(2-propenoyl)-2,6-diazaspiro[3.4]octan-6-yl)-7,8-dihydro-5H-pyrano[4,3-b]pyridine-3-carbonitrile], the IC50 (as a rule, the concentration at which inhibition is half-maximal) came to 35.6 µM. This IC50 lies about 2.1-fold higher than the previous one.

With `CN(C)C/C=C/C(=O)N1CC2(CCN(c3nc4c(c(-c5cc(O)cc6ccccc56)c3C#N)CC[C@H]3C[C@@H]43)C2)C1` (single isomer, unassigned) [Example 13-88], the midpoint of inhibition, the IC50, lay at 0.143 µM. The result for `C=CC(=O)N1CC2(CCN(c3nc4c(c(-c5c(C)c(C)cc6cnn(C)c56)c3C#N)COC(C)(C)C4)C2)C1` (single isomer, unassigned) [Example 13-91, (M)-7,7-dimethyl-2-(2-(2-propenoyl)-2,6-diazaspiro[3.4]octan-6-yl)-4-(1,5,6-trimethyl-1H-indazol-7-yl)-7,8-dihydro-5H-pyrano[4,3-b]pyridine-3-carbonitrile] reads 9.27 µM; that for `C=CC(=O)N1CC2(CCN(c3nc4c(c(-c5c(C)ccc6cnn(C)c56)c3C#N)CCC4(C)C)C2)C1` (single isomer, unassigned) [Example 13-102, (P)-2-(2-acryloyl-2,6-diazaspiro[3.4]octan-6-yl)-4-(1,6-dimethyl-1H-indazol-7-yl)-7,7-dimethyl-6,7-dihydro-5H-cyclopenta[b]pyridine-3-carbonitrile], 140 µM; that for `C=CC(=O)N1CC2(CCN(c3nc4c(c(-c5c(C)ccc6cnn(C)c56)c3C#N)CCC4(C)C)C2)C1` (single isomer, unassigned) [Example 13-103, (M)-2-(2-acryloyl-2,6-diazaspiro[3.4]octan-6-yl)-4-(1,6-dimethyl-1H-indazol-7-yl)-7,7-dimethyl-6,7-dihydro-5H-cyclopenta[b]pyridine-3-carbonitrile], 0.283 µM. The result for `C=CC(=O)N1CC2(CCN(c3nc4c(c(-c5c(C)ccc6cnn(C)c56)c3C#N)C[C@H]3C[C@@H]4C3(C)C)C2)C1` (single isomer, unassigned) [Example 13-105] reads 14.7 µM; that for `C=CC(=O)N1CC2(CCN(c3nc4c(c(-c5c(C)ccc6[nH]ncc56)c3C#N)C[C@H]3C[C@@H]4C3(C)C)C2)C1` (single isomer, unassigned) [Example 13-114], 1.38 µM; that for `C=CC(=O)N1CC2(CCN(c3nc4c(c(-c5c(C)ccc6cnn(C)c56)c3C#N)C[C@H]3C[C@@H]4C3)C2)C1` (single isomer, unassigned) [Example 13-117], 15.8 µM. The result for `C=CC(=O)N1CC2(CCN(c3nc4c(c(-c5c(C)ccc6cnn(C)c56)c3C#N)CO[C@@H](C3CC3)C4)C2)C1` (single isomer, unassigned) [Example 13-119] reads 6.7 µM; that for `C=CC(=O)N1CC2(CCN(c3nc4c(c(-c5c(C)ccc6cnn(C)c56)c3C#N)CO[C@H](C3CC3)C4)C2)C1` (single isomer, unassigned) [Example 13-120], 9.19 µM.

The compound `C=CC(=O)N1CC2(CCN(c3nc4c(c(-c5c(C)ccc6cnn(C)c56)c3C#N)CO[C@H](C3CC3)C4)C2)C1` (single isomer, unassigned) [Example 13-121] displayed an IC50 of 0.849 µM.

Take `C=CC(=O)N1CC2(CCN(c3nc4c(c(-c5cnccc5C)c3C#N)C[C@H]3C[C@@H]4C3(C)C)C2)C1` (single isomer, unassigned) [Example 13-123]: the IC50 stood at 0.856 µM. In turn, `C=CC(=O)N1CC2(CCN(c3nc4c(c(-c5cnccc5C)c3C#N)C[C@H]3C[C@@H]4C3(C)C)C2)C1` (single isomer, unassigned) [Example 13-124] returned a 50% inhibitory concentration (IC50) of 45.5 µM. Compared with the last compound, the IC50 is about 53-fold higher. On to `C=CC(=O)N1CC2(CCN(c3nc4c(c(-c5cc(O)ccc5C)c3C#N)C[C@H]3C[C@@H]4C3)C2)C1` (single isomer, unassigned) [Example 13-125], for which half-maximal inhibition (IC50) was put at 12.6 µM. The result for `C=CC(=O)N1CC2(CCN(c3nc4c(c(-c5cc(O)ccc5C)c3C#N)COC(C)(C)C4)C2)C1` (single isomer, unassigned) [Example 13-127, 4-(5-hydroxy-2-methylphenyl)-7,7-dimethyl-2-(2-(2-propenoyl)-2,6-diazaspiro[3.4]octan-6-yl)-7,8-dihydro-5H-pyrano[4,3-b]pyridine-3-carbonitrile] reads 153 µM.

Take `C=CC(=O)N1CC2(CCN(c3nc4c(c(-c5cc(O)cc6ccccc56)c3C#N)C[C@H]3C[C@@H]4C3(C)C)C2)C1` (single isomer, unassigned) [Example 13-130]: 13.1 µM corresponded to half-maximal inhibition (IC50). Against the preceding compound, the IC50 is about 12-fold lower.

On to `C=CC(=O)N1CC2(CCN(c3nc4c(c(-c5c(C)ccc6cnn(C)c56)c3C#N)[C@H]3C[C@@H](C4)C3)C2)C1` (single isomer, unassigned) [Example 13-132], for which the IC50 amounted to 24.4 µM. This IC50 is about 1.9-fold higher than that of the compound before. With `C=CC(=O)N1CC2(CCN(c3nc4c(c(-c5c(C)ccc6cnn(C)c56)c3C#N)CC[C@@H]3C[C@H]43)C2)C1` (single isomer, unassigned) [Example 13-134, (6a,7a)-4-(1,6-dimethyl-1H-indazol-7-yl)-2-(2-(2-propenoyl)-2,6-diazaspiro[3.4]octan-6-yl)-6,6a,7,7a-tetrahydro-5H-cyclopropa[h]quinoline-3-carbonitrile], the IC50 came out at 39.3 µM. The result for `C=CC(=O)N1CC2(CCN(c3nc4c(c(-c5c(C)ccc6cnn(C)c56)c3C#N)CC[C@H]3C[C@@H]43)C2)C1` (single isomer, unassigned) [Example 13-135, (6a,7a)-4-(1,6-dimethyl-1H-indazol-7-yl)-2-(2-(2-propenoyl)-2,6-diazaspiro[3.4]octan-6-yl)-6,6a,7,7a-tetrahydro-5H-cyclopropa[h]quinoline-3-carbonitrile] reads 62.5 µM. The result for `C=CC(=O)N1CC2(CCN(c3nc4c(c(-c5c(C)ccc6[nH]ncc56)c3C#N)[C@H]3CC[C@@H]4C3)C2)C1` (single isomer, unassigned) [Example 14-5] reads 0.129 µM. `C=CC(=O)N1CC2(CCN(c3nc4c(c(-c5c(C)ccc6[nH]ncc56)c3C#N)[C@@H]3CC[C@H]4C3)C2)C1` (single isomer, unassigned) [Example 14-6] returned an IC50 of 1.42 µM. The result for `C=CC(=O)N1CC2(CCN(c3nc4c(c(-c5c(C)ccc6[nH]ncc56)c3C#N)[C@H]3CC[C@@H]4C3)C2)C1` (single isomer, unassigned) [Example 14-8] reads 2.57 µM; that for `C=CC(=O)N1CC2(CCN(c3nc4c(c(-c5cc(O)ccc5C)c3C#N)[C@@H]3CC[C@H]4C3)C2)C1` (single isomer, unassigned) [Example 14-10], 1.14 µM; that for `C=CC(=O)N1CC2(CCN(c3nc4c(c(-c5cc(O)ccc5C)c3C#N)[C@H]3CC[C@@H]4C3)C2)C1` (single isomer, unassigned) [Example 14-12], 0.422 µM. The result for `C=CC(=O)N1CC2(CCN(c3nc4c(c(-c5cc(O)ccc5C)c3C#N)[C@H]3CC[C@@H]4C3)C2)C1` (single isomer, unassigned) [Example 14-13] reads 2.84 µM.

(Values after patent publication US20240059703A1 (AMGEN INC., priority 2021, published 2024).)
